Results reported in patent publication US9833497B2, “Human originated EGF domain proteins and use of the same” (CHENGDU SOURCEBIO LIMITED-LIABILITY COMPANY, priority 2013, dated 2017).

Experiments:
Type in all cases: cell-based
[1] = tested on: E. coli DH5α; assay: Antibacterial activity: MIC and growth curve against E. coli DH5α in 96-well plate; settings: minimal inhibitory concentration against E. coli DH5α; 96-well plate, 5×10^5 CFU/mL, 37° C., judged after 8 h
Outline: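 MIC taken as lowest protein level with no bacterial growth, tracked by A600 every 30 min during 37 °C, 175 rpm culture. Two-fold protein series 50-12.5 μg/mL final, triplicate wells, against 5×10^5 CFU/mL of LB-washed mid-log cells.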

[2] = tested on: E. coli BL21; assay: MIC against Gram-negative bacteria: E. coli BL21; settings: 5×10^5 CFU/mL
Outline: (§1)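 MIC, the lowest recombinant protein concentration giving no bacterial growth, found by two-fold serial dilution of human EGF-domain proteins in triplicate. Inoculum 5×10^5 CFU/mL in LB from cultures at McFarland 0.5; plates incubated at 37° C, 175 rpm shaking.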

[3] = tested on: Pseudomonas aeruginosa; assay: MIC against Gram-negative bacteria: Pseudomonas aeruginosa; settings: 5×10^5 CFU/mL
Outline: as §1

[4] = tested on: Klebsiella pneumonia; assay: MIC against Gram-negative bacteria: Klebsiella pneumonia; settings: 5×10^5 CFU/mL
Outline: as §1

[5] = tested on: Enterobacter cloacae; assay: MIC against Gram-negative bacteria: Enterobacter cloacae; settings: 5×10^5 CFU/mL
Outline: as §1

[6] = tested on: Aeromonas hydrophila; assay: MIC against Gram-negative bacteria: Aeromonas hydrophila; settings: 5×10^5 CFU/mL
Outline: as §1

[7] = tested on: Citrobacter diversus; assay: MIC against Gram-negative bacteria: Citrobacter diversus; settings: 5×10^5 CFU/mL
Outline: as §1

[8] = tested on: Moraxella catarrhalis; assay: MIC against Gram-negative bacteria: Moraxella catarrhalis; settings: 5×10^5 CFU/mL
Outline: as §1

[9] = tested on: Proteus mirabilis; assay: MIC against Gram-negative bacteria: Proteus mirabilis; settings: 5×10^5 CFU/mL
Outline: as §1

[10] = tested on: Proteus vulgaris; assay: MIC against Gram-negative bacteria: Proteus vulgaris; settings: 5×10^5 CFU/mL
Outline: as §1

[11] = tested on: Serratia marcescens; assay: MIC against Gram-negative bacteria: Serratia marcescens; settings: 5×10^5 CFU/mL
Outline: as §1

[12] = E. coli BL21, 10 h cultivation at 37° C.
[13] = P. aeruginosa, 10 h cultivation at 37° C.
[14] = K. pneumonia, 10 h cultivation at 37° C.
[15] = E. cloacae, 10 h cultivation at 37° C.
[16] = A. hydrophila, 10 h cultivation at 37° C.
[17] = C. diversus, 10 h cultivation at 37° C.
[18] = M. catarrhalis, 10 h cultivation at 37° C.
[19] = P. mirabilis, 10 h cultivation at 37° C.
[20] = P. vulgaris, 10 h cultivation at 37° C.
[21] = S. marcescens, 10 h cultivation at 37° C.

| Substance | MIC [1] [µg/mL] | MIC (μg/mL) E. coli BL21 [2, 12] [µg/mL] | MIC (μg/mL) P. aeruginosa [3, 13] [µg/mL] | MIC (μg/mL) K. pneumonia [4, 14] [µg/mL] | MIC (μg/mL) E. cloacae [5, 15] [µg/mL] | MIC (μg/mL) A. hydrophila [6, 16] [µg/mL] | MIC (μg/mL) C. diversus [7, 17] [µg/mL] | MIC (μg/mL) M. catarrhalis [8, 18] [µg/mL] | MIC (μg/mL) P. mirabilis [9, 19] [µg/mL] | MIC (μg/mL) P. vulgaris [10, 20] [µg/mL] | MIC (μg/mL) S. marcescens [11, 21] [µg/mL] | further results |
| --- | --- | --- | --- | --- | --- | --- | --- | --- | --- | --- | --- | --- |
| PRT59 (PCTVGDASACLTCAPDNRTRCGTCNTGYMLSQGLCK; listed as Homo sapiens) | 25 |  |  |  |  |  |  |  |  |  |  | MIC (μg/mL) E. coli BL21 ([2]; E. coli BL21, 96-well plate, 37° C., 10 h): 12.5 µg/mL; MIC (μg/mL) P. aeruginosa ([3]; Pseudomonas aeruginosa, 96-well plate, 37° C., 10 h): 25 µg/mL; MIC (μg/mL) K. pneumonia ([4]; Klebsiella pneumonia, 96-well plate, 37° C., 10 h): 50 µg/mL; MIC (μg/mL) E. cloacae ([5]; Enterobacter cloacae, 96-well plate, 37° C., 10 h): 25 µg/mL; MIC (μg/mL) A. hydrophila ([6]; Aeromonas hydrophila, 96-well plate, 37° C., 10 h): 12.5 µg/mL; MIC (μg/mL) C. diversus ([7]; Citrobacter diversus, 96-well plate, 37° C., 10 h): 25 µg/mL; MIC (μg/mL) M. catarrhalis ([8]; Moraxella catarrhalis, 96-well plate, 37° C., 10 h): 12.5 µg/mL; MIC (μg/mL) P. mirabilis ([9]; Proteus mirabilis, 96-well plate, 37° C., 10 h): 25 µg/mL; MIC (μg/mL) P. vulgaris ([10]; Proteus vulgaris, 96-well plate, 37° C., 10 h): 12.5 µg/mL; MIC (μg/mL) S. marcescens ([11]; Serratia marcescens, 96-well plate, 37° C., 10 h): 12.5 µg/mL |
| PRT146 (DRDECSFQPGPCSTLVQCFNTQGSFYCGACPTGWQGNGYICE; listed as Homo sapiens) | 12.5 | 50 | 12.5 | 50 | 12.5 | 12.5 | 25 | 12.5 | 25 | 12.5 | 25 |  |
| PRT200 (NFSTCLSSKEGTICSGNGVCSNELKCVCNRHWIGSDCN; listed as Homo sapiens) | 12.5 | 25 | 50 | 25 | 12.5 | 25 | 50 | 25 | 12.5 | 50 | 12.5 |  |
| PRT1409 (RACHPRCAEHGTCKDGKCECSQGWNGEHCT; listed as Homo sapiens) | 12.5 |  |  |  |  |  |  |  |  |  |  | MIC against E. coli BL21 [2, 12]: 12.5 µg/mL; MIC against P. aeruginosa ([3]; Pseudomonas aeruginosa, 10 h cultivation at 37° C.): 12.5 µg/mL; MIC against K. pneumonia ([4]; Klebsiella pneumonia, 10 h cultivation at 37° C.): 12.5 µg/mL; MIC against E. cloacae ([5]; Enterobacter cloacae, 10 h cultivation at 37° C.): 12.5 µg/mL; MIC against A. hydrophila ([6]; Aeromonas hydrophila, 10 h cultivation at 37° C.): 12.5 µg/mL; MIC against C. diversus ([7]; Citrobacter diversus, 10 h cultivation at 37° C.): 12.5 µg/mL; MIC against M. catarrhalis ([8]; Moraxella catarrhalis, 10 h cultivation at 37° C.): 12.5 µg/mL; MIC against P. mirabilis ([9]; Proteus mirabilis, 10 h cultivation at 37° C.): 50 µg/mL; MIC against P. vulgaris ([10]; Proteus vulgaris, 10 h cultivation at 37° C.): 12.5 µg/mL; MIC against S. marcescens ([11]; Serratia marcescens, 10 h cultivation at 37° C.): 50 µg/mL |
| PRT216 (DIDECTAGTHNCRADQVCINLRGSFACQCPPGYQKRGEQCV; listed as Homo sapiens) | 12.5 | 12.5 | 12.5 | 50 | 12.5 | 50 | 12.5 | 50 | 25 | 12.5 | 25 |  |
| PRT633 (TKPSCVPPCQNGGMCLRPQLCVCKPGTKGKACE; listed as Homo sapiens) | 12.5 |  |  |  |  |  |  |  |  |  |  | MIC E. coli BL21 ([2]; 96-well plate, 37° C., 10 h): 50 µg/mL; MIC P. aeruginosa ([3]; 96-well plate, 37° C., 10 h): 12.5 µg/mL; MIC K. pneumonia ([4]; 96-well plate, 37° C., 10 h): 50 µg/mL; MIC E. cloacae ([5]; 96-well plate, 37° C., 10 h): 12.5 µg/mL; MIC A. hydrophila ([6]; 96-well plate, 37° C., 10 h): 50 µg/mL; MIC C. diversus ([7]; 96-well plate, 37° C., 10 h): 12.5 µg/mL; MIC M. catarrhalis ([8]; 96-well plate, 37° C., 10 h): 50 µg/mL; MIC P. mirabilis ([9]; 96-well plate, 37° C., 10 h): 12.5 µg/mL; MIC P. vulgaris ([10]; 96-well plate, 37° C., 10 h): 50 µg/mL; MIC S. marcescens ([11]; 96-well plate, 37° C., 10 h): 25 µg/mL |
| PRT249 (EAICAKPCLNGGVCVRPDQCECAPGWGGKHCH; listed as Homo sapiens) | 25 | 12.5 | 12.5 | 12.5 | 25 | 12.5 | 25 | 12.5 | 12.5 | 12.5 | 12.5 |  |
